# Patent publication US20230414657A1, “Novel compositions for neutralizing toxic effects of hydrogen peroxide in living cells or tissues” (Dzala LLC, priority 2020, published 2023)
# Like-named read-outs stand apart in the source and are kept apart here.
# Legend:
# [1] = test system: C. elegans; format: in vivo
# Description: Mitochondrial staining was performed as described previously^3,4. Briefly, L1 worms were grown on plate or in liquid culture for 2-3 days at 15° C. […] Next, the excess dye was washed off with M9 buffer and worms were incubated in 100 μl M9 for 30 min to eliminate the excess dye in the gut. Finally, worms were paralyzed with 0.5 mM Levamizol (Sigma-Aldrich), placed on slides covered with a thin layer of 2% agarose on top of which the coverslip (22×22 mm, Menzel-Glaser no. 1) was fixed using nail polish. We used a Zeiss LSM 700 inverted laser scanning confocal microscope and a Zeiss LCI Plan-Neofluar 63×/1.3 ImmCorr DIC M27 objective to image mitochondria (Zeiss, Germany). MitoTracker Red CMXRos was excited at 555 nm and the emission above 560 nm was acquired by the second PMT. Optical sections at 0.1×0.1×0.5 μm^3 x-y-z resolution were collected in […]. Final images were adjusted for intensity and merged in Fiji. No non-linear adjustments were made.
# [2] = test system: C. elegans; assay: NADPH and NADP+ quantification by LC-MS; format: in vivo; conditions: 100 mM H2O2 plus 10 mM glycolate, 100 μM glycine or 500 μM L-serine, 3 days
# Description: To measure NADP^+ and NADPH from C. elegans, 10000-15000 L1 worms were exposed to each condition in duplicates for 3 days and then washed four times with H2O. […] 25 µM solutions of each nucleotide were treated in parallel as standards. Homogenization for 15 min at 4° C. and 300 g was carried out in a TissueLyser II (Qiagen) after adding ⅓ volume of 0.5 mm zirconium beads. The resulting mixture was centrifuged at 13,000 g and the supernatant transferred to a new tube.
# LC-MS/MS analysis of the samples was performed on a high-performance liquid chromatography (HPLC) system (1200 Agilent) coupled online to G2-S QTOF (Waters). For normal phase chromatography Bridge Amide 3.5 ml (2.1×100 mm) column from Waters was used. The mobile phase composed of eluent A and eluent B (40% acetonitrile, 0.1 mM ammonium acetate and 0.01% NH40H) was applied with the following gradient program: Eluent B, from 0% to 100% within 18 min; 100% from 18 min to 21 min; 0% from 21 min to 26 min. The flow rate was set at 0.3 ml/min. The spray voltage was set at 3.0 kV and the source temperature was set at 120° C. Nitrogen was used as both cone gas (50 L/h) and desolvation gas (800 L/h), and argon as the collision gas. MS^E mode was used with Bridge Amide 3.5 µl (2.1×100 mm) column in ESI negative ionization polarity for the detection of the nucleosides. Mass chromatograms and mass spectral data were acquired and processed by MassLynx software (Waters). Three and four biological replicates were analyzed for each condition of mel-32 RNAi and EV, respectively.
# [3] = test system: C. elegans; assay: Oxygen consumption rate (OCR), Seahorse XFe96; format: in vivo
# Description: Oxygen consumption of worms was measured with a Seahorse XFe96 system (Seahorse Bioscience, North Billerica, MA), as previously described^4. L3 larvae of the different strains were grown on plates or in liquid culture and supplemented for 2-4 days as described for each experiment. After removing bacteria and debris, approximately 100 worms were pipetted into each well of a 96-well Seahorse XF^e assay plate and OCR was measured until it stabilized. Then, 3 subsequent measurements were made at 6.5-min intervals. Finally, the exact number of worms in each well was counted and used for normalization. A small number of abnormal readings were also filtered out at this stage. On average, 7-8 wells (technical replicates) were used for each condition. Normalized OCR values were averaged for the last 3 measurements for each strain and condition. Four biological replicates were analyzed for each condition.
# [4] = test system: C. elegans; assay: Quantification of glutathione (GSH/GSSG-Glo); format: in vivo; conditions: for GSH-to-GSSG ratio: plus supplement; for GSH/GSSG ratio: H2O2-treated worms plus 100 μM glycine or 500 μM L-serine
# Description: Sample preparation was performed as described previously with some modifications^6. From each condition 10,000 synchronized animals were harvested and washed 3 times with sterile water. […] To thoroughly lyse the worms, 5 cycles of freezing and thawing were performed in a water bath at 37° C., followed by a 1-min sonication. The samples were then centrifuged and the supernatant tested for protein estimation and GSH quantification. Total GSH, GSSG, and GSH/GSSG ratios were quantified using the GSH/GSSG-Glo assay kit (Promega) following the instructions of the manufacturer. Briefly, each sample was tested in triplicate in 96-well culture plates with total glutathione or GSSG lysis reagent, for total glutathione or GSSG measurement, respectively. The GSH probe, luciferin-NT, was converted to luciferin, which is coupled to a firefly luciferase. The plates were then read in an […] plate reader (Perkin Elmer, United States). The GSSG value was subtracted from the total glutathione to calculate GSH levels and GSH/GSSG ratio. Four biological replicates were analyzed for each condition.
# [5] = test system: C. elegans; assay: Peroxide treatment of mutant, RNAi or unstressed worms: MMP, OCR and growth read together; format: in vivo; conditions: for Restoration of MMP, OCR or growth rate: H2O2, RNAi against mel-32 or gcst-1; for MMP, OCR, growth rate: H2O2, worms fed with empty vector RNAi bacteria; for Response to glycine and L-serine: ghpr-1 and ghpr-1, ldh-1, gox-1 mutants fed with mel-32 RNAi bacteria; for Deleterious effects of peroxide (MMP, respiration, size): ghpr-1 single and ghpr-1, gox-1, ldh-1 triple mutants, H2O2 plus glycine or L-serine
# From the text: C. elegans wild-type (N2) strain was received from Caenorhabditis Genetics Center, USA. Mutant strains were generated using the following primers. Idh-1: […] and […]; C31C9.2 (ghpr-1): […] and […]and F41E6.5 (gox-1): […]and[…]. […] Progeny of the rescued strains were genotyped for homozygous deletion with PCR primers for three generations. All mutants were outcrossed at least twice with the wild type to eliminate background mutations. Double and triple mutants were obtained by crossing single or double mutants and selecting the homozygous progeny by PCR.
# For RNAi experiments in liquid, E. coli HT115 containing L4440 empty vector or the indicated cDNA fragment in L4440 was inoculated in 100 ml of LB containing 100 μg/ml ampicillin and incubated overnight at 37° C. in a shaking incubator at 250 rpm. To induce the production of dsRNA, a final concentration 0.8 mM IPTG was added to the collected bacterial pellet diluted 100-fold and incubated overnight at 25° C. in a shaking incubator at 250 rpm. Bacteria were then pelleted by centrifugation at 4000 rpm for 5 mins and resuspended in 200 μl S-medium containing 100 μg/ml ampicillin and 0.8 mM IPTG.
# A population of synchronized L1 larvae was added to 30-ml glass tubes containing 2.5 ml of S-complete medium (liquid culture)^2 and NA22 or induced RNAi bacteria at an OD600 of 1.9. […] Worms were incubated at 15° C. and 150 rpm in a shaking incubator for 2-6 days, refreshing the medium every 2 days.
# Mitochondrial staining was performed as described previously^3,4. Briefly, L1 worms were grown on plate or in liquid culture for 2-3 days at 15° C. Subsequently, they were pelleted in a 15-ml tube, rinsed twice with H2O and resuspended in 100 μl of M9. 5 μM MitoTracker Red CMXRos (Thermo Fisher Scientific, Germany) in DMSO was added to the worm suspension and incubated in this solution for 1.5 hr at room temperature in the dark. Next, the excess dye was washed off with M9 buffer and worms were incubated in 100 μl M9 for 30 min to eliminate the excess dye in the gut. Finally, worms were paralyzed with 0.5 mM Levamizol (Sigma-Aldrich), placed on slides covered with a thin layer of 2% agarose on top of which the coverslip (22×22 mm, Menzel-Glaser no. 1) was fixed using nail polish. We used a Zeiss LSM 700 inverted laser scanning confocal microscope and a Zeiss LCI Plan-Neofluar 63×/1.3 ImmCorr DIC M27 objective to image mitochondria (Zeiss, Germany). MitoTracker Red CMXRos was excited at 555 nm and the emission above 560 nm was acquired by the second PMT. Optical sections at 0.1×0.1×0.5 μm^3 x-y-z resolution were collected in a 4D hyperstack. Final images were adjusted for intensity and merged in Fiji. No non-linear adjustments were made.
# Synchronized L1 worms were incubated at 15° C. on plates or in liquid culture and exposed to different conditions as indicated. Single worms were selected randomly from the plates or aliquots were taken from the liquid cultures and added to NGM plates for immediate visualization. 25 worms per treatment were measured at 24-48 hr intervals and all growth curves were done four times. Images were analyzed using FIJI (Image J) software, with length measurements derived by the sum-total of a number of segmented lines of known length, down the center of the worm as described previously^5.
# Oxygen consumption of worms was measured with a Seahorse XFe96 system (Seahorse Bioscience, North Billerica, MA), as previously described^4. L3 larvae of the different strains were grown on plates or in liquid culture and supplemented for 2-4 days as described for each experiment. After removing bacteria and debris, approximately 100 worms were pipetted into each well of a 96-well Seahorse XF^e assay plate and OCR was measured until it stabilized. Then, 3 subsequent measurements were made at 6.5-min intervals. Finally, the exact number of worms in each well was counted and used for normalization.
# [6] = test system: C. elegans; assay: Growth rate / worm size; format: in vivo; conditions: for Growth: 100 mM H2O2 plus supplement (10 mM GA, 100 μM glycine or 500 μM L-serine)
# Description: Synchronized L1 worms were incubated at 15° C. on plates or in liquid culture and exposed to different conditions as indicated. Single worms were selected randomly from the plates or aliquots were taken from the liquid cultures and added to NGM plates for immediate visualization. 25 worms per treatment were measured at 24-48 hr intervals and all growth curves were done four times.
# [7] = test system: C. elegans; conditions: in vivo, 3 days
# Description: To quantify the uptake of glycolate, glycine and L-serine approximately 10000 synchronized L1 were incubated in liquid cultures as described above and grown for 3 days in the presence of […] of [1-^14C]-glycolate, [1-^14C]-glycine or L-[1-^14C]-serine. At this stage, worms were snap-frozen and stored at […]. Animals were lysed by freezing/thawing and extracted by using the Bligh and Dyer method^7. After phase separation, organic and aqueous fractions were recovered from the lower and upper phases, respectively. After drying and concentration, radioactivity was quantified using a scintillation counter and normalized for total number of worms.
# [8] = test system: C. elegans; assay: H2O2 accumulation in worms (Amplex Red); format: in vivo; conditions: peroxide + GA with glutathione synthesis blocked by BSO
# Description: Hydrogen peroxide was measured using the Amplex Red hydrogen peroxide/peroxidase assay kit (Molecular Probes, Eugene, OR), adapting the protocol to C. elegans. In the presence of hydrogen peroxide, Amplex Red is oxidized by horseradish peroxidase to form a red-fluorescent oxidation product whose fluorescence intensity can be measured.
# To measure ROS production from C. elegans, 5000-7000 L1 worms were exposed to each condition for 2-3 days as indicated and then washed four times in 1 ml of the reaction buffer supplied with the kit. Volumes were adjusted to 700-1200 nematodes/50 μl and 50 μl was pipetted into a 96-well plate. A total of 50 μl of the Amplex Red reaction buffer was then added to the wells, and after 1 hr fluorescence was measured with a fluorescence microplate reader using excitation at 530±12.5 nm and fluorescence detection at 590±17.5 nm. Background fluorescence, determined for a no-H2O2 control reaction, was subtracted from each value. The significance of differences between conditions was determined by an unpaired fest. GraphPadPrism 8.0 was used for these calculations. Three biological replicates were carried out for each condition.
# [9] = 100 mM H2O2 plus supplement (10 mM GA, 100 μM glycine or 500 μM L-serine)
# [10] = H2O2-treated animals defective in mel-32 or gcst-1 (RNAi)
# [11] = H2O2-treated worms fed with empty vector
Radioactivity in labelled animals (uptake) relative to [14C]GA [7],Compound,"Mitochondrial membrane potential (MMP) [1, 9]",Ratio of NADPH to NADP+ [2],"Respiration rate (OCR) [3, 9]","GSH-to-GSSG ratio [4, 10]","GSH-to-GSSG ratio [4, 11]",GSH/GSSG ratio [4],"Restoration of MMP, OCR or growth rate [5]","MMP, OCR, growth rate [5]",Response to glycine and L-serine [5],"Deleterious effects of peroxide (MMP, respiration, size) [5]",Growth [6],Mitochondrial membrane potential (MMP) ([1]; H2O2 + GA + BSO (0.5 mM)),Respiration rate (OCR) ([3]; H2O2 + GA + BSO (0.5 mM)),Accumulation of H2O2 [8],"Biosynthesis of glutathione ([4]; 0.5 mM BSO, FIG. 2)","GSH/GSSG per worm ([4]; H2O2 + GA + BSO, control 107.5)",Total glutathione ([4]; H2O2 + GA + inhibitor BSO),Growth rate ([6]; H2O2 + GA + BSO (0.5 mM))
–,NCC(=O)O [glycine],able to restore,fully rescued,able to restore,strongly reduced,maintained close to control levels,able to restore,none of these three compounds were able to restore,restored parameters,loss of response,overcome the deleterious effects of peroxide,able to restore,–,–,–,–,–,–,–
3 times higher,N[C@@H](CO)C(=O)O [L-serine],able to restore,"much weaker, but still significant, increase",able to restore,strongly reduced,maintained close to control levels,able to restore,none of these three compounds were able to restore,restored parameters,loss of response,overcome the deleterious effects of peroxide,able to restore,–,–,–,–,–,–,–
–,"CCCCS(=N)(=O)CCC(N)C(=O)O [BSO, L-buthioninesulfoximine, reference compound]",–,–,–,–,–,–,–,–,–,–,–,prevented the GA-mediated improvement,prevented the GA-mediated improvement,unchanged,inhibited,36,65 % of the control,prevented the GA-mediated improvement
